pIC50: −log10 of the molar value.
molecular target: T1, recombinant Plk1 protein (Homo sapiens, UniProt P53350); assay: Plk1 kinase activity inhibition assay (33P-ATP, alpha casein substrate, flash plates); assay type: biochemical; conditions: enzymatic assay, 100 nM Li-ATP, 80 minutes at 30° C.
T1 construct: histidine tag (N); made in house; host or cells: SF9 insect cells
In short: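 IC50 derived from radioactive flash-plate counts of 33P-labelled alpha casein after 80 min at 30 °C. Reaction: 100 nM 33P-containing ATP, 50–100 ng His-tagged Plk1 (SF9-expressed), 500 ng casein per well, HEPES pH 7.5 buffer with MgCl2/MnCl2.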

T1 sequence (P53350 whole entry): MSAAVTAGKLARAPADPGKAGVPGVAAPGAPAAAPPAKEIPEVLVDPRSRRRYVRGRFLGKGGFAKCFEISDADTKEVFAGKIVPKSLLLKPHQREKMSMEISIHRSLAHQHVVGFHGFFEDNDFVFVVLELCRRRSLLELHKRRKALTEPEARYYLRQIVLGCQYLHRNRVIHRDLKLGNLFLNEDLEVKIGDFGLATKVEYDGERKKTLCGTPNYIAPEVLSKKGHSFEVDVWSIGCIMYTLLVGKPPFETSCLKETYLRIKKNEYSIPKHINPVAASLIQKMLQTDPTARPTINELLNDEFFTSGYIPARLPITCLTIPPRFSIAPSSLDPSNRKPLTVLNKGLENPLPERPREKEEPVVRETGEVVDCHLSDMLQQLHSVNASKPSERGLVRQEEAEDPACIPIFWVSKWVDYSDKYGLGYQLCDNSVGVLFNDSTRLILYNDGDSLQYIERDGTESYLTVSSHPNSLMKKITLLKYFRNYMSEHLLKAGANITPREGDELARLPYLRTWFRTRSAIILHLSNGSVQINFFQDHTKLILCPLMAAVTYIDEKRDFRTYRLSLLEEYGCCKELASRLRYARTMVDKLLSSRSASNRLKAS

| pIC50 | Structure (SMILES) |
| --- | --- |
| 5.00 to 6.00 | CCOc1ccc(OCC)c(COc2cc(-n3cnc4cnc(CO)cc43)sc2C(N)=O)c1 [Example 109, 3-[(2,5-diethoxybenzyl)oxy]-5-[6-(hydroxymethyl)-1H-imidazo[4,5-c]pyridin-1-yl]thiophene-2-carboxamide] |
| > 8.00 | CC(Oc1cc(-n2cnc3cnc(CN4CCN(C)CC4)cc32)sc1C(N)=O)c1ccccc1C(F)(F)F (stereo not shown) [Example 45, 5-{6-[(4-methylpiperazin-1-yl)methyl]-1H-imidazo[4,5-c]pyridin-1-yl}-3-{-1-[2-(trifluoromethyl)phenyl]ethoxy}thiophene-2-carboxamide] |
| > 8.00 | C[C@@H](Oc1cc(-n2cnc3cnc(CN4CCN(C(N)=O)CC4)cc32)sc1C(N)=O)c1ccccc1C(F)(F)F [Example 67, 4-{[1-(5-carbamoyl-4-{(1R)-1-[2-(trifluoromethyl)phenyl]ethoxy}-2-thienyl)-1H-imidazo[4,5-c]pyridin-6-yl]methyl}piperazine-1-carboxamide] |
| 7.00 to 8.00 | C[C@@H](Oc1cc(-n2cnc3cnc(CNCCN4CCN(C)CC4)cc32)sc1C(N)=O)c1ccccc1C(F)(F)F [Example 88, 5-[6-({[2-(4-methylpiperazin-1-yl)ethyl]amino}methyl)-1H-imidazo[4,5-c]pyridin-1-yl]-3-{(1R)-1-[2-(trifluoromethyl)phenyl]ethoxy}thiophene-2-carboxamide] |
| > 8.00 | CCN1CCN(Cc2cc3c(cn2)ncn3-c2cc(O[C@H](C)c3ccccc3Cl)c(C(N)=O)s2)CC1 [Example 130, 3-[(1R)-1-(2-chlorophenyl)ethoxy]-5-{6-[(4-ethylpiperazin-1-yl)methyl]-1H-imidazo[4,5-c]pyridin-1-yl}thiophene-2-carboxamide] |
| 6.00 to 7.00 | NC(=O)c1sc(-n2cnc3cnc(C(=O)NCCN4CCOCC4)cc32)cc1OCc1ccccc1C(F)(F)F [Example 5, 1-(5-Carbamoyl-4-{[2-(trifluoromethyl)benzyl]oxy}-2-thienyl)-N-(2-morpholin-4-ylethyl)-1H-imidazo[4,5-c]pyridine-6-carboxamide] |
| 7.00 to 8.00 | COc1ccc2c(ncn2-c2cc(OCc3ccccc3C(F)(F)F)c(C(N)=O)s2)n1 [Example 23, 5-(5-methoxy-1H-imidazo[4,5-b]pyridin-1-yl)-3-{[2-(trifluoromethyl)benzyl]oxy}thiophene-2-carboxamide] |
| 7.00 to 8.00 | CC(Oc1cc(-n2cnc3cc(CO)ncc32)sc1C(N)=O)c1ccccc1F (stereo not shown) [Example 163, 3-[-1-(2-fluorophenyl)ethoxy]-5-[6-(hydroxymethyl)-3H-imidazo[4,5-c]pyridin-3-yl]thiophene-2-carboxamide] |
| > 8.00 | CC(Oc1cc(-n2cnc3cnc(CO)cc32)sc1C(N)=O)c1ccccc1C(F)(F)F (stereo not shown) [Example 44, 5-[6-(hydroxymethyl)-1H-imidazo[4,5-c]pyridin-1-yl]-3-{1-[2-(trifluoromethyl)phenyl]ethoxy}thiophene-2-carboxamide] |
| 7.00 to 8.00 | C[C@@H](Oc1cc(-n2cnc3cnc(CN4CCC(N5CCN(C)CC5)CC4)cc32)sc1C(N)=O)c1ccccc1C(F)(F)F [Example 89, 5-(6-{[4-(4-methylpiperazin-1-yl)piperidin-1-yl]methyl}-1H-imidazo[4,5-c]pyridin-1-yl)-3-{(1R)-1-[2-(trifluoromethyl)phenyl]ethoxy}thiophene-2-carboxamide] |
| > 8.00 | C[C@@H](Oc1cc(-n2cnc3cnc(CN4CCN(CCCO)CC4)cc32)sc1C(N)=O)c1ccccc1C(F)(F)F [Example 108, 5-(6-{[4-(3-hydroxypropyl)piperazin-1-yl]methyl}-1H-imidazo[4,5-c]pyridin-1-yl)-3-{(1R)-1-[2-(trifluoromethyl)phenyl]ethoxy}thiophene-2-carboxamide] |
| 6.00 to 7.00 | CC(Oc1cc(-n2cnc3cc(CNC4CCC4)ncc32)sc1C(N)=O)c1ccccc1C(F)(F)F (stereo not shown) [Example 111, 5-{6-[(cyclobutylamino)methyl]-3H-imidazo[4,5-c]pyridin-3-yl}-3-{-1-[2-(trifluoromethyl)phenyl]ethoxy}thiophene-2-carboxamide] |
| > 8.00 | CC(Oc1cc(-n2cnc3ccncc32)sc1C(N)=O)c1ccccc1Cl (stereo not shown) [Example 12, 3-[1-(2-Chlorophenyl)ethoxy]-5-(3H-imidazo[4,5-c]pyridin-3-yl)thio-phene-2-carboxamide] |
| 7.00 to 8.00 | C[C@@H](Oc1cc(-n2cnc3cnc(CN4CCN(CCN(C)C)CC4)cc32)sc1C(N)=O)c1ccccc1Cl [Example 132, 3-[(1R)-1-(2-chlorophenyl)ethoxy]-5-[6-({4-[2-(dimethylamino)ethyl]piperazin-1-yl}methyl)-1H-imidazo[4,5-c]pyridin-1-yl]thiophene-2-carboxamide] |
| 7.00 to 8.00 | C[C@@H](Oc1cc(-n2cnc3cnc(CN4CCN(CCC#N)CC4)cc32)sc1C(N)=O)c1ccccc1C(F)(F)F [Example 82, 5-(6-{[4-(2-cyanoethyl)piperazin-1-yl]methyl}-1H-imidazo[4,5-c]pyridin-1-yl)-3-{(1R)-1-[2-(trifluoromethyl)phenyl]ethoxy}thiophene-2-carboxamide] |
| 7.00 to 8.00 | C[C@@H](Oc1cc(-n2cnc3cc(CNC4CC4)ncc32)sc1C(N)=O)c1ccccc1C(F)(F)F [Example 115, 5-{6-[(cyclopropylamino)methyl]-3H-imidazo[4,5-c]pyridin-3-yl}-3-{(1R)-1-[2-(trifluoromethyl)phenyl]ethoxy}thiophene-2-carboxamide] |
| 7.00 to 8.00 | C[C@@H](Oc1cc(-n2cnc3cnc(CN4CCN(c5cnccn5)CC4)cc32)sc1C(N)=O)c1ccccc1C(F)(F)F [Example 84, 5-{6-[(4-pyrazin-2-ylpiperazin-1-yl)methyl]-1H-imidazo[4,5-c]pyridin-1-yl}-3-{(1R)-1-[2-(trifluoromethyl)phenyl]ethoxy}thiophene-2-carboxamide] |
| 7.00 to 8.00 | C[C@@H](Oc1cc(-n2cnc3cnc(CN4CCN(C5CCCCC5)CC4)cc32)sc1C(N)=O)c1ccccc1C(F)(F)F [Example 106, 5-{6-[(4-cyclohexylpiperazin-1-yl)methyl]-1H-imidazo[4,5-c]pyridin-1-yl}-3-{(1R)-1-[2-(trifluoromethyl)phenyl]ethoxy}thiophene-2-carboxamide] |
| > 8.00 | NC(=O)c1sc(-n2cnc3cnccc32)cc1OCc1ccccc1OC(F)F [Example 42, 3-{[2-(difluoromethoxy)benzyl]oxy}-5-(1H-imidazo[4,5-c]pyridin-1-yl)thiophene-2-carboxamide] |
| > 8.00 | C[C@@H](Oc1cc(-n2cnc3cnc(CN4CCCN(C)CC4)cc32)sc1C(N)=O)c1ccccc1C(F)(F)F [Example 164, 5-{6-[(4-methyl-1,4-diazepan-1-yl)methyl]-1H-imidazo[4,5-c]pyridin-1-yl}-3-{(1R)-1-[2-(trifluoromethyl)phenyl]ethoxy}thiophene-2-carboxamide] |
| > 8.00 | C[C@@H](Oc1cc(-n2cnc3cnc(CNC4CCN(C)CC4)cc32)sc1C(N)=O)c1ccccc1C(F)(F)F [Example 73, 5-(6-{[(1-methylpiperidin-4-yl)amino]methyl}-1H-imidazo[4,5-c]pyridin-1-yl)-3-{(1R)-1-[2-(trifluoromethyl)phenyl]ethoxy}thiophene-2-carboxamide] |
| 6.00 to 7.00 | NC(=O)c1sc(-n2cnc3ccncc32)cc1OCc1ccc(C(F)(F)F)cc1 [Example 28, 5-(3H-imidazo[4,5-c]pyridin-3-yl)-3-{[4-(trifluoromethyl)benzyl]oxy}thiophene-2-carboxamide] |

Source: patent US8273890B2 (4SC AG, priority 2007, dated 2012)
